From patent US20110160216A1, “Thymidylate Synthase Haplotype is Associated with Tumor Recurrence in Stage II and Stage III Colon Cancer Patients” (UNIVERSITY OF SOUTHEM CALIFORNIA, priority 2008, published 2011)
Marks after values point to notes of the source that are not given here.

Tested on: locally advanced (Stage II/III) colon cancer
Assay: Retrospective study of time to tumor recurrence (TTR) after 5-FU-based adjuvant chemotherapy, by regimen and by TS/MTHFR genotype
Assay type: in vivo, human
Description: One hundred and ninety-seven (n=197) with locally advanced colon cancer who were treated with 5-FU-based adjuvant chemotherapy [bolus 5-FU: n=30, (15%); infusimal 5-FU: […], (85%)] either at the University of Southern California/Norris Comprehensive Cancer Center (USC/NCCC) or at the Los Angeles County/University of Southern California Medical Center (LAC/USCMC), between 1987 and 2007, were eligible for the present study. This study was conducted at the USC/NCCC and approved by the Institutional Review Board of the University of Southern California for Medical Sciences. Patient data were collected retrospectively through chart review. Informed consent was signed by all patients involved in the study.
Whole blood was collected and genomic DNA was extracted using the QIAamp kit (Qiagen, CA, USA). Samples were tested using polymerase chain reaction restriction fragment length polymorphism (PCR-RFLP) technique. Briefly, forward and reverse primers were used for PCR amplification (see Table 7), PCR products were digested by restriction enzymes (New England Biolab, Massachusetts, USA) and alleles were separated using a 4% NuSieve ethidium bromide stained agarose gel. TS and MTHFR polymorphisms were tested by PCR, followed by allele-specific restriction enzyme digestion method, as previously described (Mandola, M. V. et al. (2003) Cancer Res 63:2898-904; Mandola, M. V. et al. (2004) Pharmacogenetics 14:319-27; Markan, S. et al. (2007) Mol Cell Biochem 302:125-31; Stern, L. L. et al. (2000) Cancer Epidemiol Biomarkers Prev 9:849-53).
The primary endpoint in this study was time to tumor recurrence (TTR) in Stage II/III colon cancer patients, which was defined as the time from the date of diagnosis of Stage II/III colon cancer to the date of first recurrence, […], or until last contact if the patient was free of any tumor recurrence at the time of last contact. If a patient had not recurred, then TTR was censored at the time of death or at the last follow-up. The associations of time to tumor recurrence with patient's clinico-pathologic characteristics (age, sex, race, Stage, tumor grade, T-stage, N-stage and type of adjuvant chemotherapy) were assessed using univariate survival analyses (log-rank test).
Polymorphisms of TS and MTHFR were coded as categorical variables according to their genotypes. The associations between TS and MTHFR polymorphisms and time to recurrence were examined using Kaplan-Meier curves and log-rank test. The distributions of polymorphisms across demographic characteristics were examined using Fisher's exact test. In the univariate survival analysis, the Pike estimate of relative risk (RR) and its associated 95% confidence interval (95% CI) was based on the log-rank test.

[1] = patients receiving 5-FU only, MTHFR A + 1298C A/A
[2] = patients receiving 5-FU only, MTHFR A + 1298C A/C
[3] = patients receiving 5-FU only, MTHFR A + 1298C C/C
[4] = patients receiving 5-FU only, MTHFR C + 677T C/C
[5] = patients receiving 5-FU only, MTHFR C + 677T C/T
[6] = patients receiving 5-FU only, MTHFR C + 677T T/T
[7] = patients receiving 5-FU only, TS-3′UTR +6b/−6bp
[8] = patients receiving 5-FU only, TS-3′UTR +6bp/+6bP
[9] = patients receiving 5-FU only, TS-3′UTR −6bp/−6bp
[10] = patients receiving 5-FU only, TS-5′UTR 2R/2R
[11] = patients receiving 5-FU only, TS-5′UTR 2R/3R
[12] = patients receiving 5-FU only, TS-5′UTR 3R/36
[13] = patients receiving 5-FU only, TS-5′UTR/GC 2R/2R
[14] = patients receiving 5-FU only, TS-5′UTR/GC 2R/3(G)
[15] = patients receiving 5-FU only, TS-5′UTR/GC 2R/3R(C)
[16] = patients receiving 5-FU only, TS-5′UTR/GC 3R(C)/3R(C)
[17] = patients receiving 5-FU only, TS-5′UTR/GC 3R(G)/3R(C)
[18] = patients receiving 5-FU only, TS-5′UTR/GC 3R(G)/3R(G)

In the case of `O=c1[nH]cc(F)c(=O)[nH]1` [5-FU, 5-Fluorouracil], the “Median time to recurrence (TTR) years (95% CI)” value (from here on “Median time … (95% CI)”) (all patients grouped by adjuvant therapy) is reported as 6.6 years, the “Probablility ± SE of 3-year recurrence” value (all patients grouped by adjuvant therapy, Greenwood SE) is reported as 0.35 ± 0.04 and the “Median time … (95% CI)” value [1] is reported as > 16.8^b years. For the same compound, the “Probability ± SE of 3-year recurrence” value [1] was 0.31 ± 0.06, the “Median time … (95% CI)” value [2] was 5.9 years and the “Probability ± SE of 3-year recurrence” value [2] was 0.35 ± 0.08. For the same compound, the Relative risk (patients receiving 5-FU only, MTHFR A + 1298C A/C vs A/A (Reference)) was 1.33, the “Median time … (95% CI)” value [3] was 6.6 years and the “Probability ± SE of 3-year recurrence” value [3] was 0.40 ± 0.22. The Relative risk (patients receiving 5-FU only, MTHFR A + 1298C C/C vs A/A (Reference)) was 1.50, the “Median time … (95% CI)” value [4] was 6.6 years and the “Probability ± SE of 3-year recurrence” value [4] was 0.26 ± 0.07. The “Median time … (95% CI)” value [5] was 5.4 years, the “Probability ± SE of 3-year recurrence” value [5] was 0.41 ± 0.07 and the Relative risk (patients receiving 5-FU only, MTHFR C + 677T C/T vs C/C (Reference)) was 1.30. For the same compound, the “Median time … (95% CI)” value [6] was > 7.4^b years, the “Probability ± SE of 3-year recurrence” value [6] was 0.21 ± 0.09 and the Relative risk (patients receiving 5-FU only, MTHFR C + 677T T/T vs C/C (Reference)) was 0.55. For the same compound, the “Median time … (95% CI)” value [7] was 5.7 years, the “Probability ± SE of 3-year recurrence” value [7] was 0.34 ± 0.07 and the Relative risk (patients receiving 5-FU only, TS-3′UTR +6b/−6bp vs +6bp/+6bP (Reference)) was 1.33. For the same compound, the “Median time … (95% CI)” value [8] was > 16.8^b years, the “Probability ± SE of 3-year recurrence” value [8] was 0.28 ± 0.06 and the “Median time … (95% CI)” value [9] was > 7.7^b years. For the same compound, the “Probability ± SE of 3-year recurrence” value [9] was 0.43 ± 0.12, the Relative risk (patients receiving 5-FU only, TS-3′UTR −6bp/−6bp vs +6bp/+6bP (Reference)) was 1.36 and the “Median time … (95% CI)” value [10] was > 16.8^b years. The “Probability ± SE of 3-year recurrence” value [10] was 0.20 ± 0.08, the “Median time … (95% CI)” value [11] was 4.8 years and the “Probability ± SE of 3-year recurrence” value [11] was 0.42 ± 0.07. The Relative risk (patients receiving 5-FU only, TS-5′UTR 2R/3R vs 2R/2R (Reference)) was 1.94, the “Median time … (95% CI)” value [12] was 6.6 years and the “Probability ± SE of 3-year recurrence” value [12] was 0.29 ± 0.08. For the same compound, the Relative risk (patients receiving 5-FU only, TS-5′UTR 3R/36 vs 2R/2R (Reference)) was 1.43, the “Median time … (95% CI)” value [13] was > 16.8^b years and the “Probability ± SE of 3-year recurrence” value [13] was 0.20 ± 0.08. The “Median time … (95% CI)” value [14] was 4.8 years, the “Probability ± SE of 3-year recurrence” value [14] was 0.44 ± 0.10 and the Relative risk (patients receiving 5-FU only, TS-5′UTR/GC 2R/3(G) vs 2R/2R (Reference)) was 1.81. For the same compound, the “Median time … (95% CI)” value [15] was 5.9 years, the “Probability ± SE of 3-year recurrence” value [15] was 0.38 ± 0.10 and the Relative risk (patients receiving 5-FU only, TS-5′UTR/GC 2R/3R(C) vs 2R/2R (Reference)) was 1.79. For the same compound, the “Median time … (95% CI)” value [16] was > 13.3^b years, the “Probability ± SE of 3-year recurrence” value [16] was 0.17 ± 0.11 and the Relative risk (patients receiving 5-FU only, TS-5′UTR/GC 3R(C)/3R(C) vs 2R/2R (Reference)) was 0.46. The “Median time … (95% CI)” value [17] was 5.7 years, the “Probability ± SE of 3-year recurrence” value [17] was 0.24 ± 0.12 and the Relative risk (patients receiving 5-FU only, TS-5′UTR/GC 3R(G)/3R(C) vs 2R/2R (Reference)) was 1.44. The “Median time … (95% CI)” value [18] was 1.4 years, the “Probability ± SE of 3-year recurrence” value [18] was 0.61 ± 0.17 and the Relative risk (patients receiving 5-FU only, TS-5′UTR/GC 3R(G)/3R(G) vs 2R/2R (Reference)) was 4.74.
